# Measured values: EP4559908A1, “HETEROARYL DERIVATIVE COMPOUND AND USE THEREOF” (S2CBio Inc., priority 2022, dated 2024)
# Biological target: T1, human ANO6 (variant 5) (Homo sapiens, UniProt Q4KMQ2)
# T1 construct: expressed in transfected cells; host or cells: Fischer rat thyroid (FRT) cells
# T1 sequence (Q4KMQ2 1-931 isoform Q4KMQ2-2): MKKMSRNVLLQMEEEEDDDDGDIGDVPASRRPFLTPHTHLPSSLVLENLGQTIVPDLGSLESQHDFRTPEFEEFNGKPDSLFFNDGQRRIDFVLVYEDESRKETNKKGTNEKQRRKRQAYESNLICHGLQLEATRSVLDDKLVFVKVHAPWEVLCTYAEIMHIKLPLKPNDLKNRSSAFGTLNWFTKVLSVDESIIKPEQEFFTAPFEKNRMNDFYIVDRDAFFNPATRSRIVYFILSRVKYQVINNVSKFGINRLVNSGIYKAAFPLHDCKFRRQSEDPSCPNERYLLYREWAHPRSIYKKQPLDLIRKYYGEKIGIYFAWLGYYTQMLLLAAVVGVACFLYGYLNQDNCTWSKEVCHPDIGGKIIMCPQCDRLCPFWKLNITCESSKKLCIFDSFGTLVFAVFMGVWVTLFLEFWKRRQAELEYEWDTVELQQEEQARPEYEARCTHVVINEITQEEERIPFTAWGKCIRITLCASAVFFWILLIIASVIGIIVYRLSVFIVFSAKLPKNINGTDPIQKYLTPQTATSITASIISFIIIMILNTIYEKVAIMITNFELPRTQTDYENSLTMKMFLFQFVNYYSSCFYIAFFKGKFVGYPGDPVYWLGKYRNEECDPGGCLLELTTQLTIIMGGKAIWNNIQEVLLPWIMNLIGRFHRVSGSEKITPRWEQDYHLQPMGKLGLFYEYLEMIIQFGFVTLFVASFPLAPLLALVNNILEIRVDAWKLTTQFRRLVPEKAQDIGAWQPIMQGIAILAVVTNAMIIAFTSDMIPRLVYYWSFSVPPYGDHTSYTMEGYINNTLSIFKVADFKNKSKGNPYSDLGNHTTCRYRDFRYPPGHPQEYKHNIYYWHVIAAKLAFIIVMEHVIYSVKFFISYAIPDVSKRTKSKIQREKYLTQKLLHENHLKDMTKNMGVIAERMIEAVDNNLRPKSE
# Test: Lact C2 assay (measuring phosphatidylserine externalization scramblase function)
# Assay type: cell-based
# Conditions: FRT, FRT cells expressing human ANO6 (variant 5), ionomycin 10 µM, Lact-C2-GFP fluorescence, average of three tests; for inhibition at 0.05 µM: compound 50 nM, read-out: % Inhibition 50 nM; for inhibition at 0.1 µM: compound 100 nM; for inhibition at 1 µM: compound 1 µM, read-out: % Inhibition 1 µM
# Description: Ionomycin (Alomonelab, cat. # I-700), DAPI (Sigma- Aldrich, cat. # D8417), paraformaldehyde (Biosesang, cat. #P2031), Lionheart FX automated fluorescence microscope (BioTek), Gen5™ software program (BioTek), and Image J analysis software program.
# After the incubation, the cells were treated with compounds dissolved in DMSO to 1% v/v in each well at each concentration (50 nM, 100 nM, and 1 µM) and reacted for 10 minutes. Thereafter, each well was treated with ionomycin to a final concentration of 10 µM, allowed to react for 10 minutes, and then washed with 200 µL PBS. After washing, each well was treated with 50 µL of Lactadherin-C2 (Lact-C2)-GFP mixed in DMEM medium to a final concentration of 500 nM to stain phosphatidylserine, and cultured at 37°C for 10 minutes. After completion of the reaction, the cells were washed with 200 µL PBS, and fixed with 4% paraformaldehyde for 5 minutes at room temperature. For morphological analysis, DAPI solution was added, and the cells were incubated for 15 minutes, followed by washing with PBS. The fluorescence intensity of Lact-C2-GFP bound to phosphatidylserine on the cell surface was measured using an automated fluorescence microscope. For quantitative analysis of the fluorescence intensity of Lact-C2-GFP, BioTek Gen5™ software and Image J analysis software programs were used.
# Phosphatidylserine externalization inhibitory activity (%) by the compound was calculated through the following analysis method. Specifically, the background fluorescence value was subtracted from the measured Lact-C2-GFP fluorescence value, and the fluorescence value of the ionomycin non-treatment group and the ionomycin-treatment group in the same row where each test group was located in a 96-well microplate were calculated. In order to calculate the inhibitory activity (%) by the compound, the relative inhibitory activity was calculated by setting the compound and ionomycin non-treatment group to 100% inhibitory activity and the ionomycin alone treatment group to 0% inhibitory activity.
SMILES,inhibition at 0.05 µM [%],inhibition at 0.1 µM [%],inhibition at 1 µM [%]
"c1cc(Nc2ccc(-c3ccncc3)cc2)cc(-c2nc3ccccc3[nH]2)c1 [Example 33, N-[3-(1H-benzo[d]imidazol-2-yl)phenyl]-4-(pyridin-4-yl)aniline]",30 to 60,30 to 60,
"Fc1cc2nc(-c3cccc(Nc4ccc(-c5ccncn5)cc4)c3)[nH]c2cc1F [Example 95, 3-(5,6-difluoro-1H-benzo[d]imidazol-2-yl)-N-(4-pyrimidin-4-ylphenyl)aniline]",> 60,,> 60
"Clc1ccc2nc(-c3cccc(Nc4ncc(-c5ccccn5)cn4)c3)[nH]c2c1 [Example 82, N-[3-(6-chloro-1H-benzo[d]imidazol-2-yl)phenyl]-5-(2-pyridyl)pyrimidin-2-amine]",> 60,,
"FC(F)(F)c1ccc2nc(-c3cccc(Nc4ccc(-c5cccnn5)cc4)c3)[nH]c2c1 [Example 23, N-(4-(pyridazin-3-yl)phenyl)-3-(6-(trifluoromethyl)-1H-benzo[d]imidazol-2-yl)aniline]",> 60,> 60,> 60
"FC(F)(F)Oc1ccc2nc(-c3cccc(Nc4ccc(-c5cccnn5)cc4)c3)[nH]c2c1 [Example 230, N-(4-(pyridazin-3-yl)phenyl)-3-(6-(trifluoromethoxy)-1H-benzo[d]imidazol-2-yl)aniline]",> 60,,> 60
"Clc1cccc2nc(-c3cccc(Nc4ccc(-c5cccnn5)cc4)c3)[nH]c12 [Example 115, 3-(7-chloro-1H-benzo[d]imidazol-2-yl)-N-(4-pyridazin-3-ylphenyl)aniline]",,,> 60
"Clc1cc2nc(-c3cccc(Nc4ccc(-c5ccccc5)nn4)c3)[nH]c2cc1Cl [Example 7, N-(3-(5,6-dichloro-1H-benzo[d]imidazol-2-yl)phenyl)-6-phenylpyridazin-3-amine]",> 60,> 60,> 60
"Brc1cc2[nH]c(-c3cccc(Nc4ccc(-c5cccnn5)cc4)c3)nc2cn1 [Example 218, 3-(6-bromo-1H-imidazo[4,5-c]pyridin-2-yl)-N-(4-(pyridazin-3-yl)phenyl)aniline]",30 to 60,,
"Fc1cccc(-c2cnc(Nc3cccc(-c4nc5ccc(C(F)(F)F)cc5[nH]4)c3)nc2)n1 [Example 258, 5-(6-fluoropyridin-2-yl)-N-(3-(6-(trifluoromethyl)-1H-benzo[d]imidazol-2-yl)phenyl)pyrimidin-2-amine]",> 60,,> 60
"Fc1cccc(-c2ccc(Nc3cccc(-c4nc5ccc(C(F)(F)F)cc5[nH]4)c3)nc2)c1 [Example 18, 5-(3-fluorophenyl)-N-(3-(6-(trifluoromethyl)-1H-benzo[d]imidazol-2-yl)phenyl)pyridin-2-amine]",> 60,> 60,> 60
"FC(F)(F)c1ccc2nc(-c3cc(Nc4ccc(-c5cccnn5)cc4)ccn3)[nH]c2c1 [Example 263, N-(4-(pyridazin-3-yl)phenyl)-2-(6-(trifluoromethyl)-1H-benzo[d]imidazol-2-yl)pyridin-4-amine]",,,30 to 60
"CN(C)CCOc1ccc(-c2nc3ccc(C(F)(F)F)cc3[nH]2)cc1Nc1ccc(-c2cnccn2)cc1 [Example 174, 2-[2-(dimethylamino)ethoxy]-N-(4-pyrazin-2-ylphenyl)-5-[6-(trifluoromethyl)-1H-benzo[d]imidazol-2-yl]aniline]",,,30 to 60
"Clc1ccc2nc(-c3cccc(Nc4ccc(-c5ccccc5)nn4)c3)[nH]c2c1 [Example 12, N-[3-(6-chloro-1H-benzo[d]imidazol-2-yl)phenyl]-6-phenylpyridazin-3-amine]",> 60,> 60,> 60
"Nc1cc(Nc2cccc(-c3nc4ccccc4[nH]3)c2)ccc1-c1cccnn1 [Example 207, N^1-(3-(1H-benzo[d]imidazol-2-yl)phenyl)-4-(pyridazin-3-yl)benzene-1,3-diamine]",,,> 60
"Fc1ccc(-c2cnc(Nc3cccc(-c4nc5ccc(C(F)(F)F)cc5[nH]4)c3)nc2)nc1 [Example 260, 5-(5-fluoropyridin-2-yl)-N-(3-(6-(trifluoromethyl)-1H-benzo[d]imidazol-2-yl)phenyl)pyrimidin-2-amine]",30 to 60,,> 60
"Clc1cc2[nH]c(-c3cccc(Nc4ccc(-c5ccccn5)cc4)c3)nc2cn1 [Example 119, 3-(6-chloro-1H-imidazo[4,5-c]pyridin-2-yl)-N-[4-(2-pyridyl)phenyl]aniline]",30 to 60,,> 60
"CNc1ccc2nc(-c3cccc(Nc4ccc(-c5cccnn5)cc4)c3)[nH]c2c1 [Example 279, N-methyl-2-(3-((4-(pyridazin-3-yl)phenyl)amino)phenyl)-1H-benzo[d]imidazol-6-amine]",,,30 to 60
"FC(F)(F)c1cc2nc(-c3cccc(Nc4ccc(-c5ccccc5)nn4)c3)[nH]c2cc1Cl [Example 8, N-{3-[6-chloro-5-(trifluoromethyl)-1H-benzo[d]imidazol-2-yl]phenyl}-6-phenylpyridazin-3-amine]",> 60,> 60,> 60
"Fc1cc2nc(-c3cccc(Nc4ccc(-c5cccnn5)cc4)c3)[nH]c2cc1F [Example 81, 3-(5,6-difluoro-1H-benzo[d]imidazol-2-yl)-N-(4-pyridazin-3-ylphenyl)aniline]",> 60,,
"FC(F)(F)c1ccc2nc(-c3cccc(Nc4ccc(-c5cncnc5)cc4)c3)[nH]c2c1 [Example 28, N-[4-(pyrimidin-5-yl)phenyl]-3-[6-(trifluoromethyl)-1H-benzo[d]imidazol-2-yl]aniline]",> 60,> 60,
"FC(F)(F)Oc1ccc2nc(-c3cccc(Nc4ccc(-c5ccncn5)cc4)c3)[nH]c2c1 [Example 109, N-(4-pyrimidin-4-ylphenyl)-3-[6-(trifluoromethoxy)-1H-benzo[d]imidazol-2-yl]aniline]",> 60,,> 60
"c1cc(Nc2ccc(-c3cccnn3)cc2)cc(-c2nc3ccccc3[nH]2)c1 [Example 21, 3-(1H-benzo[d]imidazol-2-yl)-N-(4-(pyridazin-3-yl)phenyl)aniline]",> 60,> 60,> 60
"c1cc(Nc2ccc(-c3ccnnc3)cc2)cc(-c2nc3ccccc3[nH]2)c1 [Example 94, 3-(1H-benzo[d]imidazol-2-yl)-N-(4-pyridazin-4-ylphenyl)aniline]",,,> 60
"c1ccc(-c2ccc(Nc3cccc(-c4nc5ccccc5[nH]4)c3)cc2)nc1 [Example 20, 3-(1H-benzo[d]imidazol-2-yl)-N-(4-(pyridin-2-yl)phenyl)aniline]",> 60,> 60,> 60
"c1cc(Nc2ncc(-c3ccoc3)cn2)cc(-c2nc3ccccc3[nH]2)c1 [Example 163, N-[3-(1H-benzo[d]imidazol-2-yl)phenyl]-5-(3-furyl)pyrimidin-2-amine]",,,> 60
